Measurements: patent publication US20040038855A1 (priority 1999, published 2004)
Read-outs that look alike come from different tables or passages of the source.

Key:
[1] = target: T1, human Alpha-1a Adrenergic receptor (Homo sapiens, UniProt P35348); assay: Binding affinity at the human alpha-1A adrenergic receptor
T1 construct: expressed in transfected cells
T1 sequence (P35348 1-466): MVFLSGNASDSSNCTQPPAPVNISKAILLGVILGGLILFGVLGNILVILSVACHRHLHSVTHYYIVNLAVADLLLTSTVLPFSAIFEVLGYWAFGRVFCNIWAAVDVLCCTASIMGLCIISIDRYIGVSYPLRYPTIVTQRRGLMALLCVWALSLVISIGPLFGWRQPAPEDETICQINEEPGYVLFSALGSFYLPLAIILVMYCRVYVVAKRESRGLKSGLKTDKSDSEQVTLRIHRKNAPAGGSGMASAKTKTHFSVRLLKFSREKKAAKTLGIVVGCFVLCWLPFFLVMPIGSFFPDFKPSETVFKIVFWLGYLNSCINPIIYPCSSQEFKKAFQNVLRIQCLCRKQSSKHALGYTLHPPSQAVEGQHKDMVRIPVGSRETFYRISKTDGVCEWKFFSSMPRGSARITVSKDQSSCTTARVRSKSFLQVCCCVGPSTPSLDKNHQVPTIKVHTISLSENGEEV
Excerpt: (§1) Other receptors: Cell membranes expressing human dopamine D1, D2, D4 and rat D3 receptors were purchased through BioSignal, Inc. (Montreal, Canada). Binding assays using the histamine H1 receptor; dopamine receptors; and α1A, α1B, and α2 adrenergic receptors may be carried out according to the procedures described in U.S. Pat. No. 5,780,485, the disclosure of which is hereby incorporated by reference in its entirety into this application. Binding assays using the dopamine D5 receptor may be carried out according to the procedures described in U.S. Pat. No. 5,882,855, the disclosure of which is hereby incorporated by reference in its entirety into this application. Binding assays for the human α1D adrenergic receptor may be carried out according to the procedures described in U.S. Pat. No. 6,156,518, the disclosure of which is hereby incorporated by reference in its entirety into this application.

rat MCH1 receptor = target: T2, rat MCH1 receptor (Rattus norvegicus, UniProt P97639); assay: Binding affinity (Ki) at the rat MCH1 receptor
T2 construct: expressed in transfected cells
Procedure: For binding assays, pellets of transfected cells are suspended in ice-cold buffer (20 mM Tris.HCl, 5 mM EDTA, pH 7.4) and homogenized by sonication for 7 sec. The cell lysates are centrifuged at 200×g for 5 min at 4° C. The supernatants are then centrifuged at 40,000×g for 20 min at 4° C. The resulting pellets are washed once in the homogenization buffer and suspended in binding buffer (see methods for radioligand binding). Protein concentrations are determined by the method of Bradford (1976) using bovine serum albumin as the standard. Binding assays are usually performed immediately, however it is possible to prepare membranes in batch and store frozen in liquid nitrogen for future use.
Binding is performed at 25° C. for 1 hr. Incubations are terminated by rapid vacuum filtration over GF/C glass fiber filters, presoaked in 5% PEI using 50 mM Tris pH 7.4 containing 0.01% triton X-100 as wash buffer.
A methanolic solution of methyl (4S)-3-({[3-(4-[3-(acetylamino)phenyl]-3,6-dihydro-1(2H)pyridinyl)propyl]amino}carbonyl)-4-(3,4-difluorophenyl)-6-(methoxymethyl)-2-oxo-1,2,3,4-tetrahydro-5-pyrimidinecarboxylate was exposed to tritium gas at 1 atmosphere pressure in the presence of 5% palladium on carbon with stirring overnight to give the tritiated methyl (4S)-3-{[(3-{4-[3-(acetylamino)phenyl]-1-piperidinyl}propyl)amino]carbonyl}-4-(3,4-difluorophenyl)-6-(methoxymethyl)-2-oxo-1,2,3,4-tetrahydro-5-pyrimidinecarboxylate ((+)-isomer) After purification by reverse phase HPLC (Hypersil ODS, 4.6×100 mm, methanol:H2O:Et3N 10:90:1 to 100:0:1 in 15 min at 1.0 mL/min, with radiochemical and UV detection), this product was used as a radioligand in the MCH1 binding assays. The same procedure was carried out with H2 gas in place of ^3H2 to afford the non-radioactive version of Compound 10.

[2] = target: T3, human Dopamine D2 receptor (Homo sapiens, UniProt P14416); assay: Binding affinity at the human dopamine D2 receptor; conditions: Table 3c; read-out: hD2 Ki
T3 construct: purchased BioSignal, Inc. (Montreal, Canada)
Excerpt: as §1

[3] = target: T4, human Histamine H1 receptor (Homo sapiens, UniProt P35367); assay: Binding affinity at the human histamine H1 receptor
T4 construct: expressed in transfected cells
Excerpt: as §1

[4] = Table 3c, read-out: hAlpha-1a Ki
[5] = Examples 38-141, read-out: Ki (nM) rMCH1

T3 sequence (P14416 whole entry): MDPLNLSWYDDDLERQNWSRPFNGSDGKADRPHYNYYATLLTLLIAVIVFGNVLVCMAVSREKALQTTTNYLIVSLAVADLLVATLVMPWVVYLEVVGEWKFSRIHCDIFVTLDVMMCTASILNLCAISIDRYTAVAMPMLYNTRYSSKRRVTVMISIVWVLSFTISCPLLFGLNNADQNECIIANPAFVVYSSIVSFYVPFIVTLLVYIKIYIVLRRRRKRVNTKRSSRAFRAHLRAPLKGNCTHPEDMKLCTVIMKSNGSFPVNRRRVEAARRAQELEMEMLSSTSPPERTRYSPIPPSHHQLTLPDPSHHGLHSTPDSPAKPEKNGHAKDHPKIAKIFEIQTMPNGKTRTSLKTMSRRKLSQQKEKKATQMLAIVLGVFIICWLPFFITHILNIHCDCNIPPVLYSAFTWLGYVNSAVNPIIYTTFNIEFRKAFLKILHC
T4 sequence (P35367 whole entry): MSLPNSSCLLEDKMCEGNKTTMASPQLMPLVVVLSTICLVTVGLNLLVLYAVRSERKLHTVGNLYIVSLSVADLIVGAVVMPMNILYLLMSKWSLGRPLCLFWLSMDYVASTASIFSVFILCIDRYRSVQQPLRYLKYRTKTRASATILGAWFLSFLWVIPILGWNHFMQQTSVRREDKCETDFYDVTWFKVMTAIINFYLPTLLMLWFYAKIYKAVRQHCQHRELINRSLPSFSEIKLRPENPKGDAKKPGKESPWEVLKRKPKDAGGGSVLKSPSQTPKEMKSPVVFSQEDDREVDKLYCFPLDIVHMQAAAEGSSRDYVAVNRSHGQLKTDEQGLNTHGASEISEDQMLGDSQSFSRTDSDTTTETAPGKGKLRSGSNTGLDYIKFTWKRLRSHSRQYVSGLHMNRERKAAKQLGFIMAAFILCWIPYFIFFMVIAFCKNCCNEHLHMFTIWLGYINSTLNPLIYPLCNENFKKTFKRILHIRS
T2 sequence (P97639 whole entry): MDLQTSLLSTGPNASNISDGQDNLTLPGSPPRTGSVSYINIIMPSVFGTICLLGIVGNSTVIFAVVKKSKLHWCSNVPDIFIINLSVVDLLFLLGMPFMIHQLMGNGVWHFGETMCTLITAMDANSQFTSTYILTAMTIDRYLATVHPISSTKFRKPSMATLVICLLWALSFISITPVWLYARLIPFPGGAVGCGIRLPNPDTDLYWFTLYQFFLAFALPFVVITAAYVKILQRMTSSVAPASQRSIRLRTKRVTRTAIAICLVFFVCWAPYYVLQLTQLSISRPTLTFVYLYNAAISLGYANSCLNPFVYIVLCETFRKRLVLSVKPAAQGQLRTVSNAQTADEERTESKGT

Row | Ki [1, 4] [nM] | Ki (rat MCH1 receptor; [5]) [nM] | Ki (rat MCH1 receptor; Table 3c, read-out: rMCH1 Ki) [nM] | Ki [2] [nM] | Ki ([3]; Table 3c, read-out: hH1 Ki) [nM] | Structure (SMILES) | Ki (rat MCH1 receptor) [nM] | Ki (rat MCH1 receptor; read-out: rMCH1 Ki, Table 3c) [nM] | Ki [3] [nM] | Ki [1] [nM]
1 | 533 | 11.5 | 11.5 | 9650 | 2000 | COC(CCN1CCC(c2cccc(NC(=O)C(C)C)c2)CC1)c1ccc(Cl)cc1 (stereo not drawn) [Example 91] |  |  |  | 
2 | 1490 | 62 | 62 | 12000 | 2450 | CC(C)C(=O)Nc1cccc(C2CCN(CCCCCCN3C(=O)c4ccccc4C3=O)CC2)c1 [Example 92] |  |  |  | 
3 | 1090 | 29.1 | 29.1 | 35000 | 16700 | COC(CCN1CCC(c2cccc(NC(=O)C(C)C)c2)CC1)c1ccccc1 (stereo not drawn) [Example 93] |  |  |  | 
4 | 1590 | 18.2 | 18.2 | > 50000 | 6590 | CC(C)C(=O)Nc1cccc(C2CCN(CCCCN3C(=O)c4ccccc4C3=O)CC2)c1 [Example 94] |  |  |  | 
5 | 2940 | 11.8 | 11.8 | > 50000 | 6400 | CC(C)C(=O)Nc1cccc(C2CCN(CCCCCN3C(=O)c4ccccc4C3=O)CC2)c1 [Example 95, N-(3-{1-[5-(1,3-dioxo-1,3-dihydro-2H-isoindol-2-yl)pentyl]-4-piperidinyl]phenyl)-2-methylpropanamide] |  |  |  | 
6 | 12.3 | 50 | 50 | 7450 | 273 | CC(C)C(=O)Nc1cccc(C2CCN(CCCCc3ccccc3)CC2)c1 [Example 96] |  |  |  | 
7 | 434 | 12 | 12 | 10400 | 2560 | COC(CCN1CCC(c2cccc(NC(=O)C(C)C)c2)CC1)c1ccc(C)cc1 (stereo not drawn) [Example 99] |  |  |  | 
8 | 704 | 11.5 | 11.5 | 8670 | 11100 | CC(C)OC(CCN1CCC(c2cccc(NC(=O)C(C)C)c2)CC1)c1ccccc1 (stereo not drawn) [Example 100] |  |  |  | 
9 | 18 | 1.6 | 1.6 | 42.2 | 3.4 | CC(C)C(=O)Nc1cccc(C2CCN(CCCC(c3ccc(F)cc3)c3ccc(F)cc3)CC2)c1 [Example 101] |  |  |  | 
10 | > 50000 | 52 | 52 | > 50000 | 36900 | CC(C)C(=O)Nc1cccc(C2CCN(Cc3cc(C(F)(F)F)cc(C(F)(F)F)c3)CC2)c1 [Example 103] |  |  |  | 
11 | 452 | 6.7 | 6.7 | 735 | 6390 | COc1ccc(O[C@H](CCN2CCC(c3cccc(NC(=O)C(C)C)c3)CC2)c2ccccc2)cc1OC [Example 104] |  |  |  | 
12 | 161 | 3.9 | 3.9 | 1080 | 304 | COc1ccc(O[C@@H](CCN2CCC(c3cccc(NC(=O)C(C)C)c3)CC2)c2ccccc2)cc1 [Example 106] |  |  |  | 
13 | 33.5 | 3.1 | 3.1 | 152 | 130 | CC(C)C(=O)Nc1cccc(C2CCN(CC[C@H](Oc3cccc(Cl)c3)c3ccccc3)CC2)c1 [Example 107] |  |  |  | 
14 | 13.2 | 3.8 | 3.8 | 244 | 264 | CC(C)C(=O)Nc1cccc(C2CCN(CC[C@H](Oc3ccc(Cl)cc3)c3ccccc3)CC2)c1 [Example 108] |  |  |  | 
15 | 221 | 7.1 | 7.1 | 191 | 1320 | CC(C)C(=O)Nc1cccc(C2CCN(CC[C@H](Oc3ccc(C(F)(F)F)cc3)c3ccccc3)CC2)c1 [Example 109] |  |  |  | 
16 | 187 | 4.9 | 4.9 | 83 | 283 | CC(C)C(=O)Nc1cccc(C2CCN(CC[C@@H](Oc3cc(F)ccc3F)c3ccccc3)CC2)c1 [Example 110] |  |  |  | 
17 | 125 | 5 | 5 | 162 | 1100 | CC(C)C(=O)Nc1cccc(C2CCN(CC[C@@H](Oc3ccc(Cl)c(Cl)c3)c3ccccc3)CC2)c1 [Example 111] |  |  |  | 
18 | 3210 | 16.6 | 16.6 | 42000 | 48700 | CC(C)C(=O)Nc1cccc(C2CCN(CC[C@@H](O)c3ccccc3)CC2)c1 [Example 113] |  |  |  | 
19 | 233 | 2.01 | 20.1 | 390 | 590 | CC(C)C(=O)Nc1cccc(C2CCN(CC[C@H](Oc3ccc(C#N)cc3)c3ccccc3)CC2)c1 [Example 114, N-(3-{1-[(3S)-3-(4-cyanophenoxy)-3-phenylpropyl]-4-piperidinyl}phenyl)-2-methylpropanamide] |  |  |  | 
20 | 49.1 | 12.9 | 12.9 | 262 | 46.9 | COCC1=C(C(=O)OC)C(c2ccc(F)c(F)c2)N(C(=O)NCCCN2CCC(c3cc(F)ccc3OC)CC2)C(=O)N1 (stereo not drawn) [Example 115] |  |  |  | 
21 | 22.3 | 0.923 | 0.923 | 52 | 546 | CC(C)C(=O)Nc1cccc(C2CCN(CC[C@H](Oc3ccc(Br)cc3)c3ccccc3)CC2)c1 [Example 116] |  |  |  | 
22 | 310 | 13.6 | 13.6 | 281 | 969 | COc1cccc(O[C@@H](CCN2CCC(c3cccc(NC(=O)C(C)C)c3)CC2)c2ccccc2)c1 [Example 117] |  |  |  | 
23 | 719 | 12.8 | 12.8 | 319 | 25300 | COc1cc(C#N)ccc1O[C@@H](CCN1CCC(c2cccc(NC(=O)C(C)C)c2)CC1)c1ccccc1 [Example 118] |  |  |  | 
24 | 1060 | 22.4 | 22.4 | 766 | 25300 | COc1ccc(C(C)=O)cc1O[C@@H](CCN1CCC(c2cccc(NC(=O)C(C)C)c2)CC1)c1ccccc1 [Example 119] |  |  |  | 
25 | 1140 | 14.8 | 14.8 | 313 | 6990 | CC(=O)c1ccccc1O[C@H](CCN1CCC(c2cccc(NC(=O)C(C)C)c2)CC1)c1ccccc1 [Example 120] |  |  |  | 
26 | 1720 | 17 | 17 | 331 | 9390 | CC(C)C(=O)Nc1cccc(C2CCN(CC[C@@H](Oc3cc(C(F)(F)F)ccc3F)c3ccccc3)CC2)c1 [Example 121] |  |  |  | 
27 | 944 | 3.3 | 3.3 | 132 | 3470 | CC(C)C(=O)Nc1cccc(C2CCN(CC[C@H](Oc3cc(C(F)(F)F)ccc3F)c3ccccc3)CC2)c1 [Example 122] |  |  |  | 
28 | 511 | 5.9 | 5.9 | 133 | 2150 | CC(C)C(=O)Nc1cccc(C2CCN(CC[C@H](Oc3cc(F)ccc3F)c3ccccc3)CC2)c1 [Example 123] |  |  |  | 

Row | Structure (SMILES) | Ki [1, 4] [nM] | Ki (rat MCH1 receptor; [5]) [nM] | Ki (rat MCH1 receptor; Table 3c, read-out: rMCH1 Ki) [nM] | Ki [2] [nM] | Ki ([3]; Table 3c, read-out: hH1 Ki) [nM] | Ki (rat MCH1 receptor) [nM] | Ki (rat MCH1 receptor; read-out: rMCH1 Ki, Table 3c) [nM] | Ki [3] [nM] | Ki [1] [nM]
29 | CC(C)C(=O)Nc1cccc(C2CCN(CC[C@H](Oc3ccccc3)c3ccccc3)CC2)c1 [Example 105] | 140 |  |  | 471 |  | 7.1 | 7.1 | 39.1 | 
30 | CC(C)C(=O)Nc1cccc(C2CCN(CC[C@@H](Oc3ccccc3)c3ccccc3)CC2)c1 [Example 112] |  |  |  | 435 |  | 22.3 | 22.3 | 32.5 | 55
